Experimental data from US5998362A, “Conjugates useful in the treatment of prostate cancer” (priority 1997, dated 1999).
Where a SMILES comes first, the peptide text is derived from it. [ ]: non-standard residue; d: D form. The star is where a group is joined. Decanoyl(3,6,9-trioxa) = COCCOCCOCC(=O)*; Glyceroyl(2S) = O=C([C@@H](O)CO)*; Glyceroyl(2R) = O=C([C@H](O)CO)*; hArg = N=C(N)NCCCC[C@H](N)C(=O)O; 3Pal = N[C@@H](Cc1cccnc1)C(=O)O; MeOCH2CH2OCH2CO = COCCOCC(=O)*; X4 = O=C([C@H](O)[C@@H](O)CO)*; Chg = N[C@H](C(=O)O)C1CCCCC1; hSer = N[C@@H](CCO)C(=O)O; Nle = CCCC[C@H](N)C(=O)O; Glycolyl = O=C(CO)*; X3 = O=C(C(O)CO)*

molecular target: free PSA (Homo sapiens, UniProt P07288); experiment: Recognition of oligopeptides by free PSA (time to 50% cleavage, HPLC); settings: Table 2, oligopeptides; PSA digestion buffer 12 mM Tris pH8.0, 25 mM NaCl, 0.5 mM CaCl2; substrate:PSA 100 to 1
Sequence (P07288 25-261): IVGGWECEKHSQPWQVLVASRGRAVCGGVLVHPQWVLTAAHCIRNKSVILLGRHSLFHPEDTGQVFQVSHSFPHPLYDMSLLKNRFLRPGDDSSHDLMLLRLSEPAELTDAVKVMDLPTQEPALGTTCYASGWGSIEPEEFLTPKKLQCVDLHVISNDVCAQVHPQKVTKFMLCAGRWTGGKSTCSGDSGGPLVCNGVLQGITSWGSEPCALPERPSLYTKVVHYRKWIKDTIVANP
Description: The oligopeptides prepared as described in Example 1 were individually dissolved in PSA digestion buffer (12 mM tris(hydroxymethyl)-aminomethane pH8.0, 25 mM NaCl, 0.5 mM CaCl2) and the solution added to PSA at a molar ration of 100 to 1. The reaction is quenched after various reaction times by the addition of trifluoroacetic acid (TFA) to a final 1% (volume/volume). The quenched reaction was analyzed by HPLC on a reversed-phase C18 column using an aqueous 0.1% TFA/acetonitrile gradient. […] Oligopeptides containing free amine moieties (ie. comprising hArg, Orn, Lys and or 3PAL) were tested as TFA salts. All other oligopeptides were tested as neutral compounds.

SMILES	Time to 50% Substrate Cleavage by York PSA
CC(C)C[C@H](NC(=O)[C@H](CO)NC(=O)[C@H](CCC(N)=O)NC(=O)[C@@H](NC(=O)[C@H](CO)NC(=O)[C@H](CO)NC(=O)[C@H](CO)NC(=O)[C@@H](O)CO)C1CCCCC1)C(=O)O [(I)2,3-dihydroxypropionyl-SSSChgQ-SL-acid] ({Glyceroyl(2S)}-SSS[Chg]QSL-OH)	110 min

same assay, conditions: Table 2, oligopeptides; abbreviations not defined

Solubility remark in the cleavage column (INSOLUBLE / PS / PP)	SMILES
INSOLUBLE	CCCC[C@H](NC(=O)[C@H](CO)NC(=O)[C@H](CCC(N)=O)NC(=O)[C@@H](NC(=O)[C@H](CCCCNC(=N)N)NC(=O)[C@H](CO)NC(C)=O)C1CCCCC1)C(=O)O [Ac-ShRChgQ-SNle-acid] (Ac-S[hArg][Chg]QS[Nle]-OH)

same assay, conditions: free psa

SMILES	Time to 50% Substrate Cleavage by York PSA (Min), values marked *
CC(C)C[C@H](NC(=O)[C@H](CO)NC(=O)[C@H](CCC(N)=O)NC(=O)[C@H](Cc1ccc(O)cc1)NC(=O)[C@H](CCCCNC(=N)N)NC(=O)CO)C(=O)O [2-hydroxyacetylhRYQ-SL-acid] (Glycolyl-[hArg]YQSL-OH)	105 min
COCCOCC(=O)N[C@@H](CO)C(=O)N[C@@H](CCCCNC(=N)N)C(=O)N[C@H](C(=O)N[C@@H](CCC(N)=O)C(=O)N[C@@H](CO)C(=O)N[C@@H](CC(C)C)C(=O)O)C1CCCCC1 [PEG(1)-ShRChgQ-SL-acid] (MeOCH2CH2OCH2CO-S[hArg][Chg]QSL-OH)	120 min

Next, values leading:

Time to 50% Substrate Cleavage by York PSA (Min), values marked *	SMILES
25 min	CC(C)C[C@H](NC(=O)[C@H](CO)NC(=O)[C@H](CCC(N)=O)NC(=O)[C@@H](NC(=O)[C@H](CO)NC(=O)[C@H](CO)NC(=O)[C@H](CCCCNC(=N)N)NC(=O)[C@@H](O)CO)C1CCCCC1)C(=O)O [2(S)2,3-dihydroxypropionly-hRSSChgQ-SL-acid] ({Glyceroyl(2S)}-[hArg]SS[Chg]QSL-OH)
35 min	CC(C)C[C@H](NC(=O)[C@H](CO)NC(=O)[C@H](CCC(N)=O)NC(=O)[C@@H](NC(=O)[C@H](CCCCNC(=N)N)NC(=O)[C@H](CO)NC(=O)[C@@H](O)CO)C1CCCCC1)C(=O)O [2(S)-2,3-dihydroxy propionylShRChgQSL-acid] ({Glyceroyl(2S)}-S[hArg][Chg]QSL-OH)
30 min	CC(C)C[C@H](NC(=O)[C@H](CO)NC(=O)[C@H](CCC(N)=O)NC(=O)[C@@H](NC(=O)[C@H](CCCCNC(=N)N)NC(=O)[C@H](CO)NC(=O)CO)C1CCCCC1)C(=O)O [2-hydroxyacetyl-ShRChgQ-SL-acid] (Glycolyl-S[hArg][Chg]QSL-OH)
45 min	CC(=O)N[C@@H](CCCCNC(=N)N)C(=O)N[C@@H](CO)C(=O)N[C@@H](CO)C(=O)N[C@H](C(=O)N[C@@H](CCC(N)=O)C(=O)N[C@@H](CO)C(=O)N[C@@H](CC(C)C)C(=O)O)C1CCCCC1 [AChRSSChgQ-SL-acid] (Ac-[hArg]SS[Chg]QSL-OH)

same assay, conditions: free psa, pH 8

SMILES	Time to 50% Substrate Cleavage by York PSA
CC(C)C[C@H](NC(=O)[C@H](CO)NC(=O)[C@H](CCC(N)=O)NC(=O)[C@@H](NC(=O)[C@H](CO)NC(=O)[C@H](C)NC(=O)[C@H](CCCCNC(=N)N)NC(=O)CO)C1CCCCC1)C(=O)O [2-hydroxyacetyl-hRASChgQ-SL-acid] (Glycolyl-[hArg]AS[Chg]QSL-OH)	70 min
CCCC[C@H](NC(=O)[C@H](CO)NC(=O)[C@H](CCC(N)=O)NC(=O)[C@H](Cc1ccc(O)cc1)NC(=O)[C@H](CO)NC(=O)[C@H](CO)NC(=O)[C@H](CCCCNC(=N)N)NC(=O)CO)C(=O)O [2-hydroxyacetyl-hRSSYQ-SNle-acid] (Glycolyl-[hArg]SSYQS[Nle]-OH)	45 min
CC(C)C[C@H](NC(=O)[C@H](CO)NC(=O)[C@H](CCC(N)=O)NC(=O)[C@@H](NC(=O)[C@H](CO)NC(=O)[C@H](CO)NC(=O)[C@H](CO)NC(=O)[C@@H](O)CO)C1CCCCC1)C(=O)O [(I)2,3-dihydroxypropionyl-SSSChgQ-SL-acid] ({Glyceroyl(2S)}-SSS[Chg]QSL-OH)	80 min
CC(=O)N[C@@H](CCCCNC(=N)N)C(=O)N[C@@H](C)C(=O)N[C@@H](CO)C(=O)N[C@H](C(=O)N[C@@H](CCC(N)=O)C(=O)N[C@@H](CO)C(=O)N[C@@H](CC(C)C)C(=O)O)C1CCCCC1 [Ac-hRASChgQ-SL-acid] (Ac-[hArg]AS[Chg]QSL-OH)	50 min
COCCOCC(=O)N[C@@H](CO)C(=O)N[C@@H](CCCCNC(=N)N)C(=O)N[C@@H](Cc1ccc(O)cc1)C(=O)N[C@@H](CCC(N)=O)C(=O)N[C@@H](CO)C(=O)N[C@@H](CC(C)C)C(=O)O [PEG(1)-ShRYQ-SL-acid] (MeOCH2CH2OCH2CO-S[hArg]YQSL-OH)	90 min
COCCOCC(=O)N[C@@H](CCCCNC(=N)N)C(=O)N[C@@H](CO)C(=O)N[C@@H](CO)C(=O)N[C@H](C(=O)N[C@@H](CCC(N)=O)C(=O)N[C@@H](CO)C(=O)N[C@@H](CC(C)C)C(=O)O)C1CCCCC1 [PEG(1)-hRSSChgQ-SL-acid] (MeOCH2CH2OCH2CO-[hArg]SS[Chg]QSL-OH)	30 min
COCCOCCOCC(=O)N[C@@H](Cc1cccnc1)C(=O)N[C@@H](CO)C(=O)N[C@@H](CO)C(=O)N[C@H](C(=O)N[C@@H](CCC(N)=O)C(=O)N[C@@H](CO)C(=O)N[C@@H](CC(C)C)C(=O)O)C1CCCCC1 [PEG(2)-3PAL-SSChgQ-SL-acid] ({Decanoyl(3,6,9-trioxa)}-[3Pal]SS[Chg]QSL-OH)	80 min
COCCOCCOCC(=O)N[C@@H](CO)C(=O)N[C@@H](CCCCNC(=N)N)C(=O)N[C@H](C(=O)N[C@@H](CCC(N)=O)C(=O)N[C@@H](CO)C(=O)N[C@@H](CC(C)C)C(=O)O)C1CCCCC1 [PEG(2)-S-hRChgQ-SL-acid] ({Decanoyl(3,6,9-trioxa)}-S[hArg][Chg]QSL-OH)	30 min
COCCOCCOCC(=O)N[C@@H](CO)C(=O)N[C@@H](CO)C(=O)N[C@@H](Cc1ccc(O)cc1)C(=O)N[C@@H](CCC(N)=O)C(=O)N[C@@H](CO)C(=O)N[C@@H](CC(C)C)C(=O)O [PEG(2)-SSYQ-SL-acid] ({Decanoyl(3,6,9-trioxa)}-SSYQSL-OH)	150 min

Continued, values first:

Time to 50% Substrate Cleavage by York PSA	SMILES
160 min	CC(C)C[C@H](NC(=O)[C@H](CO)NC(=O)[C@H](CCC(N)=O)NC(=O)[C@@H](NC(=O)[C@H](CO)NC(=O)[C@H](CO)NC(=O)CNC(=O)C(O)CO)C1CCCCC1)C(=O)O (stereo partly drawn) [2,3-dihydroxypropionyl-GSSChgQ-SL-acid] (X3-GSS[Chg]QSL-OH)
120 min	CC(C)C[C@H](NC(=O)[C@H](CO)NC(=O)[C@H](CCC(N)=O)NC(=O)[C@@H](NC(=O)[C@H](CO)NC(=O)[C@H](CO)NC(=O)[C@H](CO)NC(=O)C(O)CO)C1CCCCC1)C(=O)O (stereo partly drawn) [2,3-dihydroxypropionyl-SSSChgQ-SL-acid] (X3-SSS[Chg]QSL-OH)
50 min	CC(C)C[C@H](NC(=O)[C@H](CO)NC(=O)[C@H](CCC(N)=O)NC(=O)[C@@H](NC(=O)[C@H](CO)NC(=O)[C@H](CO)NC(=O)[C@H](CCCCNC(=N)N)NC(=O)C(O)CO)C1CCCCC1)C(=O)O (stereo partly drawn) [2,3-dihydroxypropionyl-hRSSChgQ-SL-acid] (X3-[hArg]SS[Chg]QSL-OH)
160 min	CC(C)C[C@H](NC(=O)[C@H](CO)NC(=O)[C@H](CCC(N)=O)NC(=O)[C@@H](NC(=O)[C@H](CO)NC(=O)[C@H](CO)NC(=O)[C@H](CCO)NC(=O)C(O)CO)C1CCCCC1)C(=O)O (stereo partly drawn) [2,3-dihydroxypropionyl-hSSSChgQ-SL-acid] (X3-[hSer]SS[Chg]QSL-OH)
75 min	CC(C)C[C@H](NC(=O)[C@H](CO)NC(=O)[C@H](CCC(N)=O)NC(=O)[C@@H](NC(=O)[C@H](CCCCNC(=N)N)NC(=O)[C@H](CO)NC(=O)C(O)CO)C1CCCCC1)C(=O)O (stereo partly drawn) [2,3-dihydroxypropionylShRChgQ-SL-acid] (X3-S[hArg][Chg]QSL-OH)
180 min	CC(C)C[C@H](NC(=O)[C@H](CO)NC(=O)[C@H](CCC(N)=O)NC(=O)[C@@H](NC(=O)[C@H](CO)NC(=O)[C@H](CO)NC(=O)CO)C1CCCCC1)C(=O)O [2-hydroxyacetyl-SSChgQ-SL-acid] (Glycolyl-SS[Chg]QSL-OH)
120 min	CC(C)C[C@H](NC(=O)[C@H](CO)NC(=O)[C@H](CCC(N)=O)NC(=O)[C@@H](NC(=O)[C@H](CCCCNC(=N)N)NC(=O)[C@H](CO)NC(=O)CO)C1CCCCC1)C(=O)O [2-hydroxyacetyl-ShRChgQ-SL-acid] (Glycolyl-S[hArg][Chg]QSL-OH)
90 min	CC(C)C[C@H](NC(=O)[C@H](CO)NC(=O)[C@H](CCC(N)=O)NC(=O)[C@@H](NC(=O)[C@H](CCCCNC(=N)N)NC(=O)[C@H](CO)NC(=O)[C@H](O)[C@@H](O)CO)C1CCCCC1)C(=O)O [(2R,3S)2,3,4-trihydroxybutanoyl-ShRChgQ-SL-acid] (X4-S[hArg][Chg]QSL-OH)
70 min	CC(C)C[C@H](NC(=O)[C@H](CO)NC(=O)[C@H](CCC(N)=O)NC(=O)[C@@H](NC(=O)[C@H](CO)NC(=O)[C@H](CO)NC(=O)[C@H](Cc1cccnc1)NC(=O)[C@@H](O)CO)C1CCCCC1)C(=O)O [(I)2,3-dihydroxypropionyl-3PAL-SSChgQ-SL-acid] ({Glyceroyl(2S)}-[3Pal]SS[Chg]QSL-OH)
180 min	CC(C)C[C@H](NC(=O)[C@H](CO)NC(=O)[C@H](CCC(N)=O)NC(=O)[C@@H](NC(=O)[C@H](CO)NC(=O)[C@H](CO)NC(=O)[C@@H](O)CO)C1CCCCC1)C(=O)O [(I)2,3-dihydroxypropionyl-SSChgQ-SL-acid] ({Glyceroyl(2S)}-SS[Chg]QSL-OH)
120 min	CC(C)C[C@H](NC(=O)[C@H](CO)NC(=O)[C@H](CCC(N)=O)NC(=O)[C@@H](NC(=O)[C@H](CO)NC(=O)[C@H](CO)NC(=O)[C@H](CO)NC(=O)CO)C1CCCCC1)C(=O)O [(OH-Ac)SSSChgQ-SL-acid] (Glycolyl-SSS[Chg]QSL-OH)
80 min	CC(C)C[C@H](NC(=O)[C@H](CO)NC(=O)[C@H](CCC(N)=O)NC(=O)[C@@H](NC(=O)[C@H](CO)NC(=O)[C@H](CO)NC(=O)[C@H](Cc1cccnc1)NC(=O)[C@H](O)CO)C1CCCCC1)C(=O)O [(d)2,3-dihydroxypropionyl-3PAL-SSChgQSL-acid] ({Glyceroyl(2R)}-[3Pal]SS[Chg]QSL-OH)
120 min	CC(=O)N[C@@H](CCCCNC(=N)N)C(=O)N[C@@H](CO)C(=O)N[C@@H](CO)C(=O)N[C@H](C(=O)N[C@@H](CCC(N)=O)C(=O)N[C@@H](CO)C(=O)N[C@@H](CC(C)C)C(=O)O)C1CCCCC1 [AChRSSChgQ-SL-acid] (Ac-[hArg]SS[Chg]QSL-OH)
